The source of these data is patent US10414811B2, “Protease-resistant lipidated GLP-1 analogs” (MEDIMMUNE LIMITED, priority 2015, dated 2019).

Common to all, as to assay type: cell-based
Assay [1] deals with T1, human GLP-1 receptor (GLP-1R) (Homo sapiens, UniProt P43220).
T1 construct: expressed in transfected cells
Briefly: cAMP assay, human GLP-1R cells. In short, it runs like this: (§1)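 Peptide-stimulated cAMP measured by two-step HTRF after a 30 min room-temperature incubation with receptor-expressing cells (hGLP-1R, hGIPR at 1×10^5 cells/ml; hGCGR at 2×10^5 cells/ml). Duplicate dilutions; EC50 from 4-parameter logistic fit of % Delta F.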
(cAMP levels reflect the balance of adenylyl cyclase and phosphodiesterase activity.)

Assay [2] has as its target T2, human glucagon receptor (GCGR) (Homo sapiens, UniProt P47871).
T2 construct: expressed in transfected cells
Briefly: cAMP assay, human GCGR cells. Conditions: cAMP assay. The essentials:
as §1

In assay [3] the target is T3, human glucose-dependent insulinotropic peptide receptor (GIPR) (Homo sapiens, UniProt P48546).
T3 construct: expressed in transfected cells
T3 sequence (P48546 22-466): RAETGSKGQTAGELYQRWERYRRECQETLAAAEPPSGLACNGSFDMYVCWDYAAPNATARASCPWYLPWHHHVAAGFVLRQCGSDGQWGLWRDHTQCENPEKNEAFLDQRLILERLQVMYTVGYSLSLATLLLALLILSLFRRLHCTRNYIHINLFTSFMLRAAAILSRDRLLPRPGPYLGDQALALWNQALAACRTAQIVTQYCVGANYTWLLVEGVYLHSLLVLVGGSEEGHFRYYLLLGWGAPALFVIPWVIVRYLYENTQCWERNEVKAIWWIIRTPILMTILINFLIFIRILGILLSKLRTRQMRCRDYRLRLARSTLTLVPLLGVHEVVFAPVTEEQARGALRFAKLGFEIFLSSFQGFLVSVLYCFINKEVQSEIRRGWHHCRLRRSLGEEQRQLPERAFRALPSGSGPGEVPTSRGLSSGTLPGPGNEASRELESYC
Briefly: cAMP assay, human GIPR cells. Conditions: cAMP assay. In short, it runs like this: as §1

In assay [4] the target is T4, GLP-1R (INS1e assay) (Rattus norvegicus, UniProt P32301).
T4 construct: endogenous in cells; host or cells: INS-1E cells
T4 sequence (P32301 22-463): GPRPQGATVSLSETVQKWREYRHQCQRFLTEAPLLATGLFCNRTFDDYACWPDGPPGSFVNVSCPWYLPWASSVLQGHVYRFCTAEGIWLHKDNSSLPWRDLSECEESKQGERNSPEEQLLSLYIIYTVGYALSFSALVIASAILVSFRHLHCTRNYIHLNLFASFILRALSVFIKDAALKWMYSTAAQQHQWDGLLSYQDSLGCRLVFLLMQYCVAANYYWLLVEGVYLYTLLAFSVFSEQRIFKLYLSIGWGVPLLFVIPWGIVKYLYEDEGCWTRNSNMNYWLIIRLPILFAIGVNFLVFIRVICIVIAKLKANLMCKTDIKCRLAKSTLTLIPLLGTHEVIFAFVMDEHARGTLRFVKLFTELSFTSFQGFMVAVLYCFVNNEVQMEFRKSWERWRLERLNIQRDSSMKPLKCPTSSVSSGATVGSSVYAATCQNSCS
Briefly: INS1e assay, cAMP activity at GLP-1R. Conditions: mono-lipidated peptides. In short, it runs like this: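 It pairs cAMP-d2 acceptor with anti-cAMP cryptate donor, both prepared 1/20 in conjugate/lysis buffer, applied as a two-step protocol.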

Setting [5] is: cAMP assay, first determination (n1), read-out: Primary assay EC50 GLP-1R n1.
The mark [6] stands for this setting: cAMP assay, second determination (n2), read-out: Primary assay EC50 GLP-1R n2.
Where [7] appears, read: mean of n1 and n2, read-out: Mean pM GLP-1R.
[8] abbreviates: first determination (n1), read-out: Primary assay EC50 Gluc-R (n1).
Where [9] appears, read: second determination (n2), read-out: Primary assay EC50 Gluc-R (n2).
The mark [10] stands for this setting: first determination (n1), read-out: Primary assay EC50 GIP-R (n1).
The mark [11] stands for this setting: second determination (n2), read-out: Primary assay EC50 GIP-R (n2).
Where [12] appears, read: mean of n1 and n2, read-out: INS1e assay EC50 Mean pM GLP-1R.
[13] abbreviates: replicate n1, read-out: INS1e assay EC50 GLP-1R n1.
Setting [14] is: replicate n2, read-out: INS1e assay EC50 GLP-1R n2.

Like-named read-outs stand apart in the source and are kept apart here. Numbered stars: 1 amine (or outer) side, 2 acyl side, 3 side chain; on linkers, the order of the positions; unused ones are H or OH. Square brackets hold non-standard residues; d marks the D form. Side chains are listed from the residue outwards. Peptide text beside a SMILES is read from it. * marks the point of attachment. C18 diacid = O=C(O)CCCCCCCCCCCCCCCCC(=O)*; γGlu = O=C(O)[C@H](CCC(=O)[*:2])N[*:1]; αMeF = C[C@](N)(Cc1ccccc1)C(=O)O; αMeK = C[C@](N)(CCCCN)C(=O)O; αMeS = C[C@](N)(CO)C(=O)O; AEEA = NCCOCCOCC(=O)O; Aib = CC(C)(N)C(=O)O

T2 sequence (P47871 26-477): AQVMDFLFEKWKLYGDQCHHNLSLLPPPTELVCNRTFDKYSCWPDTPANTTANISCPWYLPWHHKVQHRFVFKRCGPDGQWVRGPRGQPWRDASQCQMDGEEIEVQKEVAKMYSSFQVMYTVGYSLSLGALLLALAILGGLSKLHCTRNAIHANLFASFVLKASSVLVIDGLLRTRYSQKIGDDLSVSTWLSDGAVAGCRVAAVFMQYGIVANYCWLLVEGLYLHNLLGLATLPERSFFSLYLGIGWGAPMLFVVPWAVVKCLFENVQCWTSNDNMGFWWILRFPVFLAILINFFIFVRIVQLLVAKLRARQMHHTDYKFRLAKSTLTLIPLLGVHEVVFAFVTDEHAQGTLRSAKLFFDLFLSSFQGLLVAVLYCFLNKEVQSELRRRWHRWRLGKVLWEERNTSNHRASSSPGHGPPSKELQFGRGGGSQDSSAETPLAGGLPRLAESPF
T1 sequence (P43220 24-463): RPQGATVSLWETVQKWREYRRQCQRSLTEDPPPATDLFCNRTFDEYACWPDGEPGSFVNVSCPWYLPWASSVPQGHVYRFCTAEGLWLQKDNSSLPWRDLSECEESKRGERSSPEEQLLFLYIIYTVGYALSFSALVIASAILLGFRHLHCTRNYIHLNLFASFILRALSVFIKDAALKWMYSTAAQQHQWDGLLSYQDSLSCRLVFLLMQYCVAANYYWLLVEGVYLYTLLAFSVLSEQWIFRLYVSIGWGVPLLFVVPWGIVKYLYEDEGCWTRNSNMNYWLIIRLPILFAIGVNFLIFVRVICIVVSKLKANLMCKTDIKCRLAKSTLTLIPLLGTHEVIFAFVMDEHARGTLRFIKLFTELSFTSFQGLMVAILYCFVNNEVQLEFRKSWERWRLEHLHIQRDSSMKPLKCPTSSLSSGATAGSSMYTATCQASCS

Take `CC[C@H](C)[C@H](NC(=O)[C@](C)(Cc1ccccc1)NC(=O)[C@H](CCCCNC(=O)COCCOCCNC(=O)COCCOCCNC(=O)CC[C@H](NC(=O)CCCCCCCCCCCCCCCCC(=O)O)C(=O)O)NC(=O)[C@](C)(CCCCN)NC(=O)[C@H](C)NC(=O)[C@H](C)NC(=O)[C@H](CCC(=O)O)NC(=O)CNC(=O)[C@H](CCC(=O)O)NC(=O)[C@H](CC(C)C)NC(=O)[C@](C)(Cc1ccccc1)NC(=O)[C@H](CO)NC(=O)[C@](C)(CO)NC(=O)[C@@H](NC(=O)[C@H](CC(=O)O)NC(=O)[C@H](CO)NC(=O)[C@@H](NC(=O)[C@](C)(Cc1ccccc1)NC(=O)[C@H](CO)NC(=O)CNC(=O)[C@H](CCC(=O)O)NC(=O)C(C)(C)NC(=O)[C@@H](N)Cc1c[nH]cn1)[C@@H](C)O)C(C)C)C(=O)N[C@@H](C)C(=O)N[C@@](C)(Cc1ccccc1)C(=O)N[C@H](C(=O)N[C@H](C(=O)N[C@@](C)(CCCCN)C(=O)NCC(=O)NCC(N)=O)C(C)C)C(C)C` [compound 108] (H-H[Aib]EGS[αMeF]TSDV[αMeS]S[αMeF]LEGEAA[αMeK]K([AEEA-AEEA-γGlu-C18 diacid])[αMeF]IA[αMeF]VV[αMeK]GG-NH2; N-terminus assumed): the EC50 in assay [1] (setting [5]) is 3.8 pM; in assay [1] (setting [6]), 3.46 pM; in assay [1] (setting [7]), 4 pM; in assay [2] (setting [8]), ≥ 25 nM; in assay [2] (setting [9]) it was ≥ 25.4 nM; in assay [3] (setting [10]), ≥ 25 nM. The EC50 in assay [3] (setting [11]) is ≥ 25.4 nM; in assay [4] (setting [12]), 248 pM; in assay [4] (setting [13]), 38 pM; in assay [4] (setting [14]), 458 pM.
For `CC[C@H](C)[C@H](NC(=O)[C@](C)(Cc1ccccc1)NC(=O)[C@H](CCC(=O)O)NC(=O)[C@](C)(CCCCN)NC(=O)[C@H](C)NC(=O)[C@H](CCCCNC(=O)COCCOCCNC(=O)COCCOCCNC(=O)CC[C@H](NC(=O)CCCCCCCCCCCCCCCCC(=O)O)C(=O)O)NC(=O)[C@H](CCC(=O)O)NC(=O)CNC(=O)[C@H](CCC(=O)O)NC(=O)[C@H](CC(C)C)NC(=O)[C@](C)(Cc1ccccc1)NC(=O)[C@H](CO)NC(=O)[C@](C)(CO)NC(=O)[C@@H](NC(=O)[C@H](CC(=O)O)NC(=O)[C@H](CO)NC(=O)[C@@H](NC(=O)[C@](C)(Cc1ccccc1)NC(=O)[C@H](CO)NC(=O)CNC(=O)[C@H](CCC(=O)O)NC(=O)C(C)(C)NC(=O)[C@@H](N)Cc1c[nH]cn1)[C@@H](C)O)C(C)C)C(=O)N[C@@H](C)C(=O)N[C@@](C)(Cc1ccccc1)C(=O)N[C@H](C(=O)N[C@H](C(=O)N[C@@](C)(CCCCN)C(=O)NCC(=O)NCC(N)=O)C(C)C)C(C)C` [compound 111] (H-H[Aib]EGS[αMeF]TSDV[αMeS]S[αMeF]LEGEK([AEEA-AEEA-γGlu-C18 diacid])A[αMeK]E[αMeF]IA[αMeF]VV[αMeK]GG-NH2), the EC50 is 18 pM in assay [1] (setting [5]); ≥ 25 nM in assay [2] (setting [8]); ≥ 25 nM in assay [2] (setting [9]); ≥ 25 nM in assay [3] (setting [10]); ≥ 25 nM in assay [3] (setting [11]); 806 pM in assay [4] (setting [12]). The EC50 turned out to be 501 pM in assay [4] (setting [13]) and 1110 pM in assay [4] (setting [14]).
As to `CC[C@H](C)[C@H](NC(=O)[C@](C)(Cc1ccccc1)NC(=O)[C@H](CCC(=O)O)NC(=O)[C@](C)(CCCCN)NC(=O)[C@H](C)NC(=O)[C@H](C)NC(=O)[C@H](CCCCNC(=O)COCCOCCNC(=O)COCCOCCNC(=O)CC[C@H](NC(=O)CCCCCCCCCCCCCCCCC(=O)O)C(=O)O)NC(=O)CNC(=O)[C@H](CCC(=O)O)NC(=O)[C@H](CC(C)C)NC(=O)[C@](C)(Cc1ccccc1)NC(=O)[C@H](CO)NC(=O)[C@](C)(CO)NC(=O)[C@@H](NC(=O)[C@H](CC(=O)O)NC(=O)[C@H](CO)NC(=O)[C@@H](NC(=O)[C@](C)(Cc1ccccc1)NC(=O)[C@H](CO)NC(=O)CNC(=O)[C@H](CCC(=O)O)NC(=O)C(C)(C)NC(=O)[C@@H](N)Cc1c[nH]cn1)[C@@H](C)O)C(C)C)C(=O)N[C@@H](C)C(=O)N[C@@](C)(Cc1ccccc1)C(=O)N[C@H](C(=O)N[C@H](C(=O)N[C@@](C)(CCCCN)C(=O)NCC(=O)NCC(N)=O)C(C)C)C(C)C` [compound 112] (H-H[Aib]EGS[αMeF]TSDV[αMeS]S[αMeF]LEGK([AEEA-AEEA-γGlu-C18 diacid])AA[αMeK]E[αMeF]IA[αMeF]VV[αMeK]GG-NH2; N-terminus assumed), the EC50 in assay [1] (setting [6]) is 5.07 pM; in assay [2] (setting [8]), ≥ 25 nM; in assay [2] (setting [9]), ≥ 25.4 nM; in assay [3] (setting [10]), ≥ 25 nM; in assay [3] (setting [11]), ≥ 25.4 nM; in assay [4] (setting [12]), 385 pM. Also, the EC50 in assay [4] (setting [13]) came to 294 pM; in assay [4] (setting [14]) it was 476 pM.
Take `CC[C@H](C)[C@H](NC(=O)[C@](C)(Cc1ccccc1)NC(=O)[C@H](CCC(=O)O)NC(=O)[C@](C)(CCCCN)NC(=O)[C@H](C)NC(=O)[C@H](C)NC(=O)[C@H](CCC(=O)O)NC(=O)CNC(=O)[C@H](CCC(=O)O)NC(=O)[C@H](CC(C)C)NC(=O)[C@](C)(Cc1ccccc1)NC(=O)[C@H](CO)NC(=O)[C@](C)(CO)NC(=O)[C@H](CCCCNC(=O)COCCOCCNC(=O)COCCOCCNC(=O)CC[C@H](NC(=O)CCCCCCCCCCCCCCCCC(=O)O)C(=O)O)NC(=O)[C@H](CC(=O)O)NC(=O)[C@H](CO)NC(=O)[C@@H](NC(=O)[C@](C)(Cc1ccccc1)NC(=O)[C@H](CO)NC(=O)CNC(=O)[C@H](CCC(=O)O)NC(=O)C(C)(C)NC(=O)[C@@H](N)Cc1c[nH]cn1)[C@@H](C)O)C(=O)N[C@@H](C)C(=O)N[C@@](C)(Cc1ccccc1)C(=O)N[C@H](C(=O)N[C@H](C(=O)N[C@@](C)(CCCCN)C(=O)NCC(=O)NCC(N)=O)C(C)C)C(C)C` [compound 119] (H-H[Aib]EGS[αMeF]TSDK([AEEA-AEEA-γGlu-C18 diacid])[αMeS]S[αMeF]LEGEAA[αMeK]E[αMeF]IA[αMeF]VV[αMeK]GG-NH2; N-terminus assumed): the EC50 was 18 pM in assay [1] (setting [5]); 15.7 pM in assay [1] (setting [6]); 17 pM in assay [1] (setting [7]); ≥ 25 nM in assay [2] (setting [8]); ≥ 25.2 nM in assay [2] (setting [9]); ≥ 25 nM in assay [3] (setting [10]). Besides, the EC50 in assay [3] (setting [11]) was ≥ 25.2 nM; in assay [4] (setting [12]) it was 2080 pM; in assay [4] (setting [13]) it was 2710 pM; in assay [4] (setting [14]), 1450 pM.
Take `CCCCCCCCCCCC(=O)NCCCCCC(=O)NCCCCCC(=O)NCCCC[C@H](NC(=O)[C@H](C)NC(=O)[C@H](C)NC(=O)[C@H](CCC(=O)O)NC(=O)CNC(=O)[C@H](CCC(=O)O)NC(=O)[C@H](CC(C)C)NC(=O)[C@](C)(Cc1ccccc1)NC(=O)[C@H](CO)NC(=O)[C@](C)(CO)NC(=O)[C@@H](NC(=O)[C@H](CC(=O)O)NC(=O)[C@H](CO)NC(=O)[C@@H](NC(=O)[C@](C)(Cc1ccccc1)NC(=O)[C@H](CO)NC(=O)CNC(=O)[C@H](CCC(=O)O)NC(=O)C(C)(C)NC(=O)[C@@H](N)Cc1c[nH]cn1)[C@@H](C)O)C(C)C)C(=O)N[C@@H](CCC(=O)O)C(=O)N[C@@](C)(Cc1ccccc1)C(=O)N[C@H](C(=O)N[C@@H](C)C(=O)N[C@@](C)(Cc1ccccc1)C(=O)N[C@H](C(=O)N[C@H](C(=O)N[C@@](C)(CCCCN)C(=O)NCC(=O)NCC(N)=O)C(C)C)C(C)C)[C@@H](C)CC` [compound 132]: the EC50 in assay [1] (setting [5]) is 11 pM; in assay [1] (setting [6]) it was 7.1 pM; in assay [1] (setting [7]), 9 pM; in assay [2] (setting [8]) it was ≥ 28 nM; in assay [2] (setting [9]), ≥ 28 nM; in assay [3] (setting [10]) it was ≥ 28 nM. For the same molecule, the EC50 in assay [3] (setting [11]) was ≥ 28 nM; in assay [4] (setting [12]), 122 pM; in assay [4] (setting [13]), 129 pM; in assay [4] (setting [14]) it was 115 pM.
